From patent US10760052B2, “Method of inhibiting tau phosphorylation” (priority 2012, dated 2020)
Where two headings read alike, the source gives them in different places.

Biological target: T1, mu opiate receptor (MOR) (Rattus norvegicus, UniProt P33535)
T1 construct: from tissue; host or cells: striatum (membrane preparation)
Type: biochemical
Method: To assess the mu opiate receptor (MOR) agonist activity of positive compounds from the FLNA screening, compounds were tested in a [^35S]GTPγS binding assay using striatal membranes. […] This assay measures a functional consequence of receptor occupancy at one of the earliest receptor-mediated events. The assay permits for traditional pharmacological parameters of potency, efficacy and antagonist affinity, with the advantage that agonist measures are not subjected to amplification or other modulation that may occur when analyzing parameters further downstream of the receptor.
Thus, striatal tissue was homogenized in 10 volumes of ice cold 25 mM HEPES buffer, pH 7.4, which contained 1 mM EGTA, 100 mM sucrose, 50 μg/ml leupeptin, 0.04 mM PMSF, 2 μg/ml soybean trypsin inhibitor and 0.2% 2-mercaptoethanol. The homogenates were centrifuged at 800×g for 5 minutes and the supernatants were centrifuged at 49,000×g for 20 minutes.
The resultant striatal membrane preparation (200 μg) was admixed and maintained (incubated) at 30° C. for 5 minutes in reaction buffer as above that additionally contained 1 mM MgCl2 and 0.5 nM [^35S]GTPγS (0.1 μCi/assay, PerkinElmer Life and Analytical Sciences) in a total volume of 250 μl and continued for 5 minutes in the absence or presence of 0.1-10 μM of an assayed compound of interest. The reaction was terminated by dilution with 750 μl of ice-cold reaction buffer that contained 20 mM MgCl2 and 1 mM EGTA and immediate centrifugation at 16,000×g for 5 minutes.
Normal rabbit serum (1 μl) was added to 1 ml of lysate and incubated at 25° C. for 30 minutes. Nonspecific immune complexes were removed by incubation with 25 μl of protein A/G-conjugated agarose beads at 25° C. for 30 minutes followed by centrifugation at 5,000×g at 4° C. for 5 minutes. The supernatant was divided and separately incubated at 25° C. for 30 minutes with antibodies raised against Gαo proteins (1:1,000 dilutions).
The immunocomplexes so formed were collected by incubation at 25° C. for 30 minutes with 40 μl of agarose-conjugated protein A/G beads and centrifugation at 5,000×g at 4° C. for 5 minutes. The pellet was washed and suspended in buffer containing 50 mM Tris-HCl, pH 8.0, and 1% NP-40. The radioactivity in the suspension was determined by liquid scintillation spectrometry.

[1] = [35S]GTPγS binding to Gαo in striatal membranes, compound 0.1 μM
[2] = [35S]GTPγS binding to Gαo in striatal membranes, compound 1 μM
[3] = [35S]GTPγS binding to Gαo in striatal membranes, compound 1 μM plus 1 μM β-funaltrexamine (MOR antagonist)

T1 sequence (P33535 whole entry): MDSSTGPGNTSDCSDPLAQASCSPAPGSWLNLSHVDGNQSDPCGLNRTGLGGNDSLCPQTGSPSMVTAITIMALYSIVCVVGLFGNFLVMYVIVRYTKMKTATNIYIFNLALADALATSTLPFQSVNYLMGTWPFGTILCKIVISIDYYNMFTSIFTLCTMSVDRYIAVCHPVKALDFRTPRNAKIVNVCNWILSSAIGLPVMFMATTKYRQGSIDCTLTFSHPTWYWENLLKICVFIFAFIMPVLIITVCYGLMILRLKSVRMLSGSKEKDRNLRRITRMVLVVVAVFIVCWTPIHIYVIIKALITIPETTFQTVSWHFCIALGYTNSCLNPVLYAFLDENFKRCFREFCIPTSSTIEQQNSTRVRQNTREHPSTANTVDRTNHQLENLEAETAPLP

## OC(COc1cccc(C(F)(F)F)c1)CN1CCc2ccccc2C1 (stereo not drawn) [Compound A0054]
  % DAMGO (0.1 μM): 44.4%
  % DAMGO (1 μM): 63.9%
  % DAMGO + BFNA: 348.9%
[1]
  Concentration of FLNA-Binding Compound as Agonist 0.1 μM: 74.9%
[2]
  Concentration of FLNA-Binding Compound as Agonist 1 μM: 159.2%
[3]
  Concentration of FLNA-Binding Compound as Agonist 1 μM + BFNA: 114.1%

## OC(COc1cccc(F)c1)CN1CCc2ccccc2C1 (stereo not drawn) [Compound A0055]
  % DAMGO (0.1 μM): 53.2%
  % DAMGO (1 μM): 78.4%
  % DAMGO + BFNA: 102.4%
[1]
  Concentration of FLNA-Binding Compound as Agonist 0.1 μM: 89.8%
[2]
  Concentration of FLNA-Binding Compound as Agonist 1 μM: 195.2%
[3]
  Concentration of FLNA-Binding Compound as Agonist 1 μM + BFNA: 33.5%

## CC1CCC(C(C)C)C(OCC(O)CN2CCC(=O)C(C)C2)C1 (stereo not drawn) [Compound A0056]
  % DAMGO (0.1 μM): 74.1%
  % DAMGO (1 μM): 56.2%
  % DAMGO + BFNA: 43.6%
  Concentration of FLNA-Binding Compound as Agonist 0.1 μM: 115.6%
  Concentration of FLNA-Binding Compound as Agonist 1 μM: 129.6%
  Concentration of FLNA-Binding Compound as Agonist 1 μM + BFNA: 17.4%

## OC(COc1ccc(Br)c(F)c1)CN1CCc2ccccc2C1 (stereo not drawn) [Compound A0057]
  % DAMGO (0.1 μM): 79.6%
  % DAMGO (1 μM): 83.3%
  % DAMGO + BFNA: 112.3%
[1]
  Concentration of FLNA-Binding Compound as Agonist 0.1 μM: 124.2%
[2]
  Concentration of FLNA-Binding Compound as Agonist 1 μM: 192.1%
[3]
  Concentration of FLNA-Binding Compound as Agonist 1 μM + BFNA: 44.8%

## OC(COc1ccc(Br)c(F)c1)CN1CCCCC1 (stereo not drawn) [Compound A0058]
  % DAMGO (0.1 μM): 45.3%
  % DAMGO (1 μM): 106.0%
  % DAMGO + BFNA: 150.1%
[1]
  Concentration of FLNA-Binding Compound as Agonist 0.1 μM: 70.7%
[2]
  Concentration of FLNA-Binding Compound as Agonist 1 μM: 244.3%
[3]
  Concentration of FLNA-Binding Compound as Agonist 1 μM + BFNA: 59.9%

## OC(COc1ccc(Br)c(F)c1)CN1CCSCC1 (stereo not drawn) [Compound A0059]
  % DAMGO (0.1 μM): 63.5%
  % DAMGO (1 μM): 56.4%
  % DAMGO + BFNA: 214.8%
  Concentration of FLNA-Binding Compound as Agonist 0.1 μM: 99.2%
  Concentration of FLNA-Binding Compound as Agonist 1 μM: 129.9%
  Concentration of FLNA-Binding Compound as Agonist 1 μM + BFNA: 85.7%

## CC1CCC(C(C)C)C(OCC(O)CN2CCC(=O)CC2)C1 (stereo not drawn) [Compound A0060]
  % DAMGO (0.1 μM): 63.9%
  % DAMGO (1 μM): 68.6%
  % DAMGO + BFNA: 35.8%
[1]
  Concentration of FLNA-Binding Compound as Agonist 0.1 μM: 99.7%
[2]
  Concentration of FLNA-Binding Compound as Agonist 1 μM: 158.2%
[3]
  Concentration of FLNA-Binding Compound as Agonist 1 μM + BFNA: 14.3%

## COc1c2c(cc3c1OCO3)CCN(CC(O)COC1CC(C)CCC1C(C)C)C2 (stereo not drawn) [Compound A0061]
  % DAMGO (0.1 μM): 70.7%
  % DAMGO (1 μM): 85.5%
  % DAMGO + BFNA: 26.8%
[1]
  Concentration of FLNA-Binding Compound as Agonist 0.1 μM: 110.3%
[2]
  Concentration of FLNA-Binding Compound as Agonist 1 μM: 197.1%
[3]
  Concentration of FLNA-Binding Compound as Agonist 1 μM + BFNA: 10.7%

## CC1CCC(C(C)C)C(OCC(O)CN2CCCc3ccccc32)C1 (stereo not drawn) [Compound A0068]
  % DAMGO (0.1 μM): 36.8%
  % DAMGO (1 μM): 35.2%
  % DAMGO + BFNA: 182.0%
[1]
  Concentration of FLNA-Binding Compound as Agonist 0.1 μM: 73.9%
[2]
  Concentration of FLNA-Binding Compound as Agonist 1 μM: 110.4%
[3]
  Concentration of FLNA-Binding Compound as Agonist 1 μM + BFNA: 98.1%

## COc1ccc(OCC(O)CN2CCOc3ccccc32)cc1 (stereo not drawn) [Compound A0076]
  % DAMGO (0.1 μM): 46.4%
  % DAMGO (1 μM): 78.6%
  % DAMGO + BFNA: 119.4%
[1]
  Concentration of FLNA-Binding Compound as Agonist 0.1 μM: 79.8%
[2]
  Concentration of FLNA-Binding Compound as Agonist 1 μM: 172.6%
[3]
  Concentration of FLNA-Binding Compound as Agonist 1 μM + BFNA: 41.2%

## COc1ccc(OCC(O)Cn2ccc3ccccc32)cc1 (stereo not drawn) [Compound A0077]
  % DAMGO (0.1 μM): 170.5%
  % DAMGO (1 μM): 132.3%
  % DAMGO + BFNA: 470.5%
[1]
  Concentration of FLNA-Binding Compound as Agonist 0.1 μM: 300.1%
[2]
  Concentration of FLNA-Binding Compound as Agonist 1 μM: 334.7%
[3]
  Concentration of FLNA-Binding Compound as Agonist 1 μM + BFNA: 103.5%

## CC1CCC(C(C)C)C(OCC(O)Cn2ccc3ccccc32)C1 (stereo not drawn) [Compound A0078]
  % DAMGO (0.1 μM): 124.9%
  % DAMGO (1 μM): 92.3%
  % DAMGO + BFNA: 274.2%
  Concentration of FLNA-Binding Compound as Agonist 0.1 μM: 250.5%
  Concentration of FLNA-Binding Compound as Agonist 1 μM: 289.9%
  Concentration of FLNA-Binding Compound as Agonist 1 μM + BFNA: 147.8%
